By IC50 is commonly meant the concentration that gives 50% inhibition.

Several values for one entry are separate records, joined by “and”; a condition that tells them apart may be missing. Identical values can stand only once. Marks after values point to notes of the source that are not given here.

Test [1] concerns the target T1, porcine pancreatic α-amylase (Sus scrofa, UniProt P00690).
T1 construct: purchased Sigma-Aldrich
T1 sequence (P00690 16-511): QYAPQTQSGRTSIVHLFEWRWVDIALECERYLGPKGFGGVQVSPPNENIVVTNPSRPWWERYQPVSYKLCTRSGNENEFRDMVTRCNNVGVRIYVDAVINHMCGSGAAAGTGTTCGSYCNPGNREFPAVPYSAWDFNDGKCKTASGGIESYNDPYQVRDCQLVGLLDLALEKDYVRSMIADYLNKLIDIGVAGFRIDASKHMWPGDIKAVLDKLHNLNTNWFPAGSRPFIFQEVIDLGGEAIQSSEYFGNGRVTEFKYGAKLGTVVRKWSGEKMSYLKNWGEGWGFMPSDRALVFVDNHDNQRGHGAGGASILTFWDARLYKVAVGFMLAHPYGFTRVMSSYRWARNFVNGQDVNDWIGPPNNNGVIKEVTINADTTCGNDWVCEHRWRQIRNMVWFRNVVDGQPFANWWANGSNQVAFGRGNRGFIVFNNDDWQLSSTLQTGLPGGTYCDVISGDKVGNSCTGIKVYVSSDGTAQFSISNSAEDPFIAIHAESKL
Nature of the test: Pancreatic α-amylase inhibition assay (I% and IC50). Type of test: biochemical. The following applies: for IC50: mean ± S.E.M., n = 3, starch substrate, 37 °C, pH 7.0. The procedure:
(§1) The pancreatic α-amylase inhibition assay was carried out according to Freitas et al. with some modifications. The porcine pancreatic α-amylase (1 mg/mL) was incubated in 50 mM Tris-HCl buffer (pH 7.0) containing 10 mM CaCl2 and 1% starch. […] Afterward, microplates were pre-incubated for 10 min in a water bath at 37 °C. […] The reaction was stopped using an ice bath. All reactions were carried out in triplicate.

Test [2] concerns the target T1, porcine pancreatic α-amylase. In words: Kinetic parameters and Lineweaver-Burk analysis, pancreatic α-amylase. Type of test: biochemical. The following applies: for Vmax (pancreatic α-amylase in presence of inhibitor) / Slope (Lineweaver-Burk, pancreatic α-amylase): inhibitor concentration: acarbose 387, PPC80 730, PPC82 795, PPC84 870, PPC89 675, PPC101 532 µM; for Vmax (pancreatic α-amylase in presence of inhibitor): no inhibitor Vmax 100.70 ± 0.34; for Slope (Lineweaver-Burk, pancreatic α-amylase): no inhibitor slope 0.59; for Inhibition mechanism on pancreatic α-amylase: from Km, Vmax and Lineweaver-Burk plots. The procedure: as §1
(§2) Kinetic parameters were determined using the same experimental conditions as described above for each enzyme. […] The enzyme concentrations were maintained as described above. […] The absorbance values were converted into product concentration (µmol/L) using standard curves of glucose (α-amylase) and p-nitrophenol (pancreatic lipase and α-glucosidase). The value of the initial velocity (v0) of enzymatic reactions was estimated to create the “v0 versus substrate concentration” graph. Kinetic constants (Km and Vmax) and slope were calculated, and the inhibition model was verified using Lineweaver–Burk plots.

Test [3] addresses T2, porcine pancreatic lipase (Sus scrofa, UniProt P00591).
T2 construct: purchased Sigma-Aldrich
T2 sequence (P00591 1-450): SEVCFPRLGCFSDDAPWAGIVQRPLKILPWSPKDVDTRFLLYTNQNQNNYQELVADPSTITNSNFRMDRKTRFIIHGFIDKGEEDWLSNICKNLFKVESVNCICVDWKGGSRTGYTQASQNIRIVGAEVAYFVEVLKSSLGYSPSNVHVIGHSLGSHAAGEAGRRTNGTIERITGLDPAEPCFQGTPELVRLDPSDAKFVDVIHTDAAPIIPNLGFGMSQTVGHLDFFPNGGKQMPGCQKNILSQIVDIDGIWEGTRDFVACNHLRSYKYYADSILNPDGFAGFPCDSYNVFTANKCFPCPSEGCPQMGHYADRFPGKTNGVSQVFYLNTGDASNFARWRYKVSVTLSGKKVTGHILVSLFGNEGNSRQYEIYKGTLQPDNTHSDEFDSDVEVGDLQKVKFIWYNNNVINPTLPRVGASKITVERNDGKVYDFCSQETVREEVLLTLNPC
In words: Pancreatic lipase inhibition assay (I% and IC50). The format is biochemical. Particulars: for IC50: mean ± S.E.M., n = 3, substrate p-nitrophenol palmitate, 37 °C, pH 8.0; for Inhibitory action on pancreatic lipase (in words): tested concentration range. The procedure: (§3) The pancreatic lipase inhibition assay was performed according to Santos et al. with some modifications. The porcine pancreatic lipase (10 g/L) was incubated in 50 mmol/L Tris-HCl buffer (pH 8.0) containing 10 mM CaCl2 and 25 mM NaCl. The p-nitrophenol palmitate substrate (8 mM) was dissolved in 0.5% w/v Triton-X 100. […] All reactions were carried out in triplicate.

The target of test [4] is T2, porcine pancreatic lipase. Nature of the test: Kinetic parameters and Lineweaver-Burk analysis, pancreatic lipase. The format is biochemical. The following applies: for Vmax (pancreatic lipase in presence of inhibitor) / Slope (Lineweaver-Burk, pancreatic lipase): inhibitor concentration: orlistat 101 µM, PPC80 146 µM, PPC82 159 µM, PPC84 174 µM; for Vmax (pancreatic lipase in presence of inhibitor): no inhibitor Vmax 68.65 ± 0.41; for Slope (Lineweaver-Burk, pancreatic lipase): no inhibitor slope 2.77; for Inhibition mechanism on pancreatic lipase: from Km, Vmax and Lineweaver-Burk plots. The procedure: as §3, §2

For test [5], the system named is α-glucosidase. Nature of the test: α-Glucosidase inhibition assay (I% and IC50). The following applies: for Inhibitory action against α-glucosidase (in words): tested concentration range.
Test [6] deals with α-glucosidase. In words: Kinetic parameters and Lineweaver-Burk analysis, α-glucosidase. The format is biochemical. The following applies: for Inhibition mechanism on α-glucosidase: from Km, Vmax and Lineweaver-Burk plots; for Vmax (α-glucosidase in presence of inhibitor) / Slope (Lineweaver-Burk, α-glucosidase): inhibitor concentration: acarbose 387, PPC84 870, PPC89 675, PPC101 532 µM; for Vmax (α-glucosidase in presence of inhibitor): no inhibitor Vmax 62.42 ± 1.14; for Slope (Lineweaver-Burk, α-glucosidase): no inhibitor slope 2.93. The procedure:
[20] with some modifications. […] The reaction was stopped in an ice bath. All enzyme reactions were carried out in triplicate. […] Kinetic parameters were determined using the same experimental conditions as described above for each enzyme. […] The enzyme concentrations were maintained as described above. […] The absorbance values were converted into product concentration (μmol/L) using standard curves of glucose (α-amylase) and p-nitrophenol (pancreatic lipase and α-glucosidase). The value of the initial velocity (v0) of enzymatic reactions was estimated to create the “v0 versus substrate concentration” graph. Kinetic constants (Km and Vmax) and slope were calculated, and the inhibition model was verified using Lineweaver-Burk plots.

In test [7] the target is T2, porcine pancreatic lipase. Also on record: method as in PMID 12771334. The following applies: 100 mg/mL; cited from earlier work.

`C[C@H]1O[C@H](O[C@H]2[C@H](O)[C@@H](O)[C@@H](O[C@H]3[C@H](O)[C@@H](O)C(O)O[C@@H]3CO)O[C@@H]2CO)[C@H](O)[C@@H](O)[C@@H]1N[C@H]1C=C(CO)[C@@H](O)[C@H](O)[C@H]1O` (some centres unmarked) [Acarbose, acarbose, reference compound] yielded an inhibition at 620 µM in test [1] (620 µM) of about 86%. In addition, in test [2], the “Vmax (pancreatic α-amylase in presence of inhibitor)” value is reported as 100.30 ± 0.89 ^a µM/min and the “Slope (Lineweaver-Burk, pancreatic α-amylase)” value came out at 0.66 min⁻¹.
As for `CCCCCCCCCCC[C@@H](C[C@@H]1OC(=O)[C@H]1CCCCCC)OC(=O)[C@H](CC(C)C)NC=O` [Orlistat, orlistat, reference compound], the inhibition at 807 µM in test [3] (807 µM, read-out: Inhibitory effect on pancreatic lipase activity) turned out to be 60%. Further, in test [4], the “Vmax (pancreatic lipase in presence of inhibitor)” value was 68.34 ± 0.40 µM/min and 68.34 ± 0.40 ^a µM/min; the “Slope (Lineweaver-Burk, pancreatic lipase)” value turned out to be 4.10 min⁻¹.
Take `CCCCCCCCNC(=O)[C@@H](NC(=O)OC(C)(C)C)[C@@H](C)CC` [PPC80]: in test [3] (584 µM, read-out: Inhibitory effect on pancreatic lipase activity), the inhibition at 584 µM is about 65%. The IC50 in test [3] came out at 475 ± 8.25 µM. Also, in test [4], the “Inhibition mechanism on pancreatic lipase” value is on record as “competitive mechanism”; the “Vmax (pancreatic lipase in presence of inhibitor)” value is 68.82 ± 0.57 µM/min and 68.82 ± 0.57 ^a µM/min; the “Slope (Lineweaver-Burk, pancreatic lipase)” value was determined as 4.65 min⁻¹. Also, in test [1] (730 µM), the inhibition at 730 µM was about 93%. The same compound showed a 50% inhibitory concentration (IC50) in test [1] of 276 ± 5.21 µM. Further, in test [2], the “Inhibition mechanism on pancreatic α-amylase” value was “non-competitive or mixed inhibition mechanism”; the “Vmax (pancreatic α-amylase in presence of inhibitor)” value was 91.75 ± 0.48 µM/min; the “Slope (Lineweaver-Burk, pancreatic α-amylase)” value was 0.89 min⁻¹. In addition, the “Inhibitory action against α-glucosidase (in words)” value in the test with α-glucosidase [5] is recorded as “did not show inhibitory action”.
Turning to `CCCCCCNC(=O)[C@@H](NC(=O)OC(C)(C)C)[C@@H](C)CC` [PPC82], the inhibition at 477 µM in test [3] (477 µM, read-out: Inhibitory effect on pancreatic lipase activity) was about 86%. In addition, it took 167 ± 6.25 µM to reach half-maximal inhibition in test [3] (IC50). Moreover, in test [4], the “Inhibition mechanism on pancreatic lipase” value is “competitive mechanism”; the “Vmax (pancreatic lipase in presence of inhibitor)” value was 69.13 ± 0.57 µM/min and 69.13 ± 0.57 ^a µM/min; the “Slope (Lineweaver-Burk, pancreatic lipase)” value is 5.79 min⁻¹. Moreover, in test [1] (1590 µM), the inhibition at 1590 µM was about 94%. This compound displayed a half-inhibitory concentration (IC50) in test [1] of 519 ± 20 µM. Also, in test [2], the “Inhibition mechanism on pancreatic α-amylase” value is recorded as “competitive-type inhibition mechanism”; the “Vmax (pancreatic α-amylase in presence of inhibitor)” value was 99.70 ± 1.20 ^a µM/min; the “Slope (Lineweaver-Burk, pancreatic α-amylase)” value turned out to be 0.72 min⁻¹. The “Inhibitory action against α-glucosidase (in words)” value in the test with α-glucosidase [5] is “did not show inhibitory action”.
As for `CC[C@H](C)[C@H](NC(=O)OC(C)(C)C)C(=O)NCCCN` [PPC84], in the test with α-glucosidase [6], the “Inhibition mechanism on α-glucosidase” value is reported as “competitive inhibitors”; the “Vmax (α-glucosidase in presence of inhibitor)” value is 62.90 ± 0.60 µM/min and 62.90 ± 0.60 ^a µM/min; the “Slope (Lineweaver-Burk, α-glucosidase)” value worked out at 4.29 min⁻¹. Also, in test [3] (1392 µM, read-out: Inhibitory effect on pancreatic lipase activity), the inhibition at 1392 µM was about 62%. The IC50 in test [3] is 1020 ± 20.3 µM. Also, in test [4], the “Inhibition mechanism on pancreatic lipase” value is on record as “mixed or non-competitive inhibition mechanism”; the “Vmax (pancreatic lipase in presence of inhibitor)” value was 62.76 ± 0.3 µM/min and 62.76 ± 0.35 µM/min; the “Slope (Lineweaver-Burk, pancreatic lipase)” value was determined as 3.19 min⁻¹. In test [1] (870 µM), this compound had an inhibition at 870 µM of about 74%. The IC50 in test [1] is 493 ± 11 µM. Further, in test [2], the “Inhibition mechanism on pancreatic α-amylase” value is recorded as “non-competitive or mixed inhibition mechanism”; the “Vmax (pancreatic α-amylase in presence of inhibitor)” value is 94.35 ± 0.51 µM/min; the “Slope (Lineweaver-Burk, pancreatic α-amylase)” value amounted to 0.80 min⁻¹. In addition, the “Inhibition of α-glucosidase” value in the test on α-glucosidase [5] (435 µM) is reported as about 66%.
Regarding `CCCCCCCCCCNC(=O)[C@@H](NC(=O)OC(C)(C)C)[C@@H](C)CC` [PPC89], in the test with α-glucosidase [6], the “Inhibition mechanism on α-glucosidase” value was “competitive inhibitors”; the “Vmax (α-glucosidase in presence of inhibitor)” value is 62.30 ± 1.33 µM/min and 62.30 ± 1.33 ^a µM/min; the “Slope (Lineweaver-Burk, α-glucosidase)” value is 4.11 min⁻¹. In addition, in test [3], the “Inhibitory action on pancreatic lipase (in words)” value is “did not show inhibitory action”. Further, the “Inhibitory effect on pancreatic α-amylase (in words)” value in test [1] (405 µM, compared with acarbose 620 µM) is on record as “same inhibitory effect as acarbose”. This compound also yielded an inhibition at 675 µM in test [1] (675 µM) of about 90%. This compound came in with an IC50 in test [1] of 171 ± 13.6 µM. Besides, in test [2], the “Inhibition mechanism on pancreatic α-amylase” value is on record as “competitive-type inhibition mechanism”; the “Vmax (pancreatic α-amylase in presence of inhibitor)” value is 99.73 ± 1.77 ^a µM/min; the “Slope (Lineweaver-Burk, pancreatic α-amylase)” value came to 0.76 min⁻¹. In the test with α-glucosidase [5] (674 µM), the “Inhibition of α-glucosidase” value was about 78%.
Turning to `CCCCCCCCCCCCNCCCCNC(=O)[C@@H](NC(=O)OC(C)(C)C)[C@@H](C)CC` [PPC101], in the test on α-glucosidase [6], the “Inhibition mechanism on α-glucosidase” value is “competitive inhibitors”; the “Vmax (α-glucosidase in presence of inhibitor)” value was 63.09 ± 1.45 µM/min and 63.09 ± 1.45 ^a µM/min; the “Slope (Lineweaver-Burk, α-glucosidase)” value was determined as 4.94 min⁻¹. For the same compound, the “Inhibitory action on pancreatic lipase (in words)” value in test [3] was “did not show inhibitory action”. For the same compound, in test [1] (532 µM), the inhibition at 532 µM is about 86%. Moreover, inhibition in test [1] was half-maximal at 162 ± 1.73 µM (IC50). In test [2], the “Inhibition mechanism on pancreatic α-amylase” value is reported as “competitive-type inhibition mechanism”; the “Vmax (pancreatic α-amylase in presence of inhibitor)” value is 100.00 ± 1.55 ^a µM/min; the “Slope (Lineweaver-Burk, pancreatic α-amylase)” value stood at 0.70 min⁻¹. Moreover, in the test with α-glucosidase [5] (67 µM), the “Inhibition of α-glucosidase” value is about 64%. For the same compound, the half-maximal inhibitory concentration (IC50) on α-glucosidase [5] (read-out: IC50 α-Glucosidase, mean ± S.E.M., n = 3, substrate p-nitrophenyl-α-D-glucopyranoside, 37 °C, pH 7.0) came out at 51 ± 1.73 µM.
As to Polylysine, the “Inhibition of porcine pancreatic lipase activity” value in test [7] is 80%.

Source of the values: article PMC10296036, “Inhibitory Potential of Synthetic Amino Acid Derivatives against Digestive Enzymes as Promising Hypoglycemic and Anti-Obesity Agents” (Biomolecules, 2023).
